Data published in patent publication US20130123460A1, “PEPTIDE FOR IMPROVING BIOSTABILITY OF BIOACTIVE SUBSTANCE, AND BIOACTIVE SUBSTANCE HAVING IMPROVED BIOSTABILITY” (priority 2010, published 2013).
Like-named read-outs stand apart in the source and are kept apart here. Bridges are numbered along the chain shown (N, C = ends). Where no end group is shown, it is not given here.

Tests used:
[1] = Plasma stability of amylin complex (remaining rate in rat plasma); assay type: in vitro ADME, SD rats; details: SD, rat, plasma
Protocol: Evaluation was performed in a manner in which after the treatment of the amylin or amylin peptide complex with plasma for a pre-determined time, an amount of change of the amylin peptide (complex) undecomposed was measured by an HPLC/MS.

[2] = target: T1, endogenous GLP-1 receptor (Mus musculus, UniProt O35659); assay: Insulin secretion capacity of GLP-1 peptide complex in MIN 6 cells; assay type: cell-based; details: MIN 6 cells, 1000 pM, 15 mM glucose; control = native GLP-1 at 1000 pM;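 also: insulin released into the supernatant of MIN 6 cultures quantified by ELISA, absorbance read at 450 nm with 620 nm reference after substrate addition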
T1 construct: expressing an endogenous GLP-1 receptor; endogenous in cells; host or cells: MIN 6 mouse insulinoma cells (obtained from a person)
T1 sequence (O35659 22-463): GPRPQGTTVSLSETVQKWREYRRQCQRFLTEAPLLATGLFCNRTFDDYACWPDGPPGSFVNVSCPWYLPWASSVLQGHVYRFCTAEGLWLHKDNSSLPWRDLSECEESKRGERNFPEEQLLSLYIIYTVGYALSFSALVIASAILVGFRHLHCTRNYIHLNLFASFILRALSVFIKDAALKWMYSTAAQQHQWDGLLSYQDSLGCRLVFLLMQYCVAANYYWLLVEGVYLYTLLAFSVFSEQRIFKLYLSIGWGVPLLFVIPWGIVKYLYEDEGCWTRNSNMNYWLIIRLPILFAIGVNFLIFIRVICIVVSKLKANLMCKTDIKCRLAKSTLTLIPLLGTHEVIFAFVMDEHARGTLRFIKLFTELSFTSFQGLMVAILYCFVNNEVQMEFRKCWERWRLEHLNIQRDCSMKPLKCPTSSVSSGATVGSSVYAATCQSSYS
Protocol: MIN 6 was seeded on a multi-plate, which was cultivated at 37° C. for 48 hours. After that, the culture was washed twice with a KRH buffer solution including 2 mM glucose solution (including NaCl 119 mM, KCl 4.74 mM, CaCl2 2.54 mM, MgCl2 1.19 mM, KH2PO4 1.19 mM, 10 mM HEPES buffer solution pH7.3, and 0.1% BSA), and then it was incubated at 37° C. for one hour. […] A supernatant thereof was recovered, and an amount of insulin secreted was measured. The measurement of the insulin was performed in an enzyme-linked immunosorbent assay (ELISA), and an absorbance was measured at 450 nm (a sub-wavelength: 620 nm) after the addition of a substrate.
EC50 values thereof were calculated in the same manner as in Part 2, and the influence on the bioactivity caused by the addition of the partial peptide of the GA module were inspected in detail.
The analysis was performed using the following calculation formula.

[3] = Plasma stability of GLP-1 peptide complex (remaining rate in rat plasma, HPLC/MS); assay type: in vitro ADME, SD rats; details: for remaining at 8 h, 0.5 μmol/L / remaining at 48 h, 0.5 μmol/L: SD
Source text: SD rats were anesthetized with diethyl ether, whole blood was collected and a plasma fraction was separated therefrom.

[4] = rat plasma, 0.5 μmol/L, 37° C., 48 hours, relative to 0 hour = 100%, read-out: Remaining rate in plasma after 48 hours (%)

remaining at 8 h, 0.5 μmol/L ([3]; rat, plasma) [%]	remaining at 48 h, 0.5 μmol/L ([3]; rat, plasma) [%]	Compound	Insulin secretion capacity (% of control) [2] [%]	remaining at 48 h, 0.5 μmol/L [3, 4] [%]	further results
		AKTVEGVKALIDEILAAKCNTATCATQRLANFLVHSSNNFGAILSSTNVGSNTY-NH2 (disulfide 19-24) [Example 30, GAm(28-44)-Amylin(1-37)-NH2]			remaining at 0.5 h, 0.5 μmol/L [1]: 88%; remaining at 2 h, 0.5 μmol/L [1]: 67%; remaining at 8 h, 0.5 μmol/L [1]: 9%
		CC[C@H](C)[C@H](NC(=O)[C@H](Cc1ccccc1)NC(=O)[C@H](CCC(=O)O)NC(=O)[C@H](CCCCN)NC(=O)[C@H](C)NC(=O)[C@H](C)NC(=O)[C@H](CCC(N)=O)NC(=O)CNC(=O)[C@H](CCC(=O)O)NC(=O)[C@H](CC(C)C)NC(=O)[C@H](Cc1ccc(O)cc1)NC(=O)[C@H](CO)NC(=O)[C@H](CO)NC(=O)[C@@H](NC(=O)[C@H](CC(=O)O)NC(=O)[C@H](CO)NC(=O)[C@@H](NC(=O)[C@H](Cc1ccccc1)NC(=O)[C@@H](NC(=O)CNC(=O)[C@H](CCC(=O)O)NC(=O)[C@H](CO)NC(=O)[C@@H](N)Cc1c[nH]cn1)[C@@H](C)O)[C@@H](C)O)C(C)C)C(=O)N[C@@H](C)C(=O)N[C@@H](Cc1c[nH]c2ccccc12)C(=O)N[C@@H](CC(C)C)C(=O)N[C@H](C(=O)N[C@@H](CCCCN)C(=O)NCC(=O)N[C@@H](CC(C)C)C(=O)N[C@H](C(=O)N[C@@H](CC(=O)O)C(=O)N[C@@H](CCC(=O)O)C(=O)N[C@H](C(=O)N[C@@H](CC(C)C)C(=O)N[C@@H](C)C(=O)N[C@@H](C)C(N)=O)[C@@H](C)CC)[C@@H](C)CC)C(C)C [Example 3, [Ser8]-GLP-1(7-35)-GAm(37-44)-NH2]	82	95	remaining at 8 h, 0.5 μmol/L ([3]; rat plasma, 0.5 μmol/L, 37° C., 8 hours, relative to 0 hour = 100%, read-out: Remaining rate in plasma after 8 hours (%)): 113%
86	53	HAEGTFTSDVSSYLEGQAAKEFIAWLVKGGPKALIDEILAA-NH2 [Example 21, GLP-1(7-35)-Gly-Pro-GAm(35-44)-NH2]	103		
		CC[C@H](C)[C@H](NC(=O)[C@H](Cc1ccccc1)NC(=O)[C@H](CCC(=O)O)NC(=O)[C@H](CCCCN)NC(=O)[C@H](C)NC(=O)[C@H](C)NC(=O)[C@H](CCC(N)=O)NC(=O)CNC(=O)[C@H](CCC(=O)O)NC(=O)[C@H](CC(C)C)NC(=O)[C@H](Cc1ccc(O)cc1)NC(=O)[C@H](CO)NC(=O)[C@H](CO)NC(=O)[C@@H](NC(=O)[C@H](CC(=O)O)NC(=O)[C@H](CO)NC(=O)[C@@H](NC(=O)[C@H](Cc1ccccc1)NC(=O)[C@@H](NC(=O)CNC(=O)[C@H](CCC(=O)O)NC(=O)[C@H](CO)NC(=O)[C@@H](N)Cc1c[nH]cn1)[C@@H](C)O)[C@@H](C)O)C(C)C)C(=O)N[C@@H](C)C(=O)N[C@@H](Cc1c[nH]c2ccccc12)C(=O)N[C@@H](CC(C)C)C(=O)N[C@H](C(=O)N[C@@H](CCCCN)C(=O)NCC(=O)N[C@@H](CC(C)C)C(=O)N[C@H](C(=O)N[C@@H](CC(=O)O)C(=O)N[C@@H](CCC(=O)O)C(=O)N[C@H](C(=O)N[C@@H](CC(C)C)C(=O)N[C@@H](C)C(=O)N[C@@H](C)C(=O)O)[C@@H](C)CC)[C@@H](C)CC)C(C)C [Example 20, [Ser8]-GLP-1(7-35)-GAm(37-44)]	98	79	Remaining rate in plasma after 8 hours (%) ([3]; rat plasma, 0.5 μmol/L, 37° C., 8 hours, relative to 0 hour = 100%): 125%
94	87	HAEGTFTSDVSSYLEGQAAKEFIAWLVKGGVKALIDEILA-NH2 [Example 7, GLP-1(7-35)-GAm(33-43)-NH2]	105		
